Reference: patent publication US8877980B2, “Phenylboronic acid” (Al-Urdonia Lemudaddat Al-Ajsam Co., priority 2012, dated 2014)
Converted amounts (≈) assume the structure as drawn. Read-outs that look alike come from different tables or passages of the source.

Legend:
MRSA clinical strain [1] = assay: Broth microdilution MIC determination; assay type: cell-based, methicillin resistant S. aureus; settings: for MIC: Staphylococcus aureus, 24 h
S. aureus ATCC 2592 [2] = assay: Disk diffusion; assay type: cell-based
S. aureus ATCC 2592 [3] = assay: Broth microdilution MIC determination; assay type: cell-based; settings: Staphylococcus aureus, ATCC2592, 24 h, MTT readout
E. coli ATCC 8739 [4] = assay: Broth microdilution MIC determination; assay type: cell-based
Experimental: (§1) The following bacterial strains were used; S. aureus ATCC 29350, E. coli ATCC 8739, and P. aeruginosa ATCC 27853. The cultivation medium for P. aeruginosa and E. coli were tryptone soy Agar (Oxoid, UK), and, 5% defibrinated sheep blood added to columbia blood agar base (Oxoid, UK). The bacterial cultures were aerobically grown at 37° C. for 24 hrs. For antimicrobial testing, the bacterial cultures were prepared by picking colonies from logarithmic phase of growth and suspended in 5 ml of Mueller Hinton broth with suitable supplements. The bacterium inoculum sizes were adjusted to 10^8 CFU/ml for all strains.
(§2) solutions of 2-(bromoacetamido)phenylboronic acid were prepared by gradually dissolving 2-(bromoacetamido)phenylboronic acid to the maximum solubility in 100% DMSO (1 mg/ml). Similarly standard stock solution of Vancomycin and Penicillin (1 mg/ml) were used as positive controls.
For the broth microdilution test, 100 μL of each bacterial suspension in suitable growth medium was added to the wells of a sterile 96-well microtitre plate already containing 100 μL of two-fold serially diluted 2-(bromoacetamido)phenylboronic acid or vancomycin and penicillin in proper growth medium. The final volume in each well was 200 μL. Control wells were prepared with culture medium, bacterial suspension only compound only and DMSO in amounts corresponding to the highest quantity present. […]

[5] = Single dose acute toxicity study and LD50 determination; assay type: in vivo, mice; settings: mouse, in vivo; acute oral, dissolved in DMSO, BALB/c mice; curve generated
Experimental: (§3) Results of Acute Toxicity of 2-(bromoacetamido)phenylboronic Acid in Balb/c Mice
(§4) • a. […] This effect started 30 minutes post treatment. The activity was recovered after 3 hours post treatment (for survived animals). […] The time of deaths was observed as dose dependent. Mice treated with 150 mg/kg died within 18 hours of 2-(bromoacetamido)phenylboronic acid administration while mice treated with 200 mg/kg died within 4 hours post treatment. • e.

Balb/c Mice = assay: as above; assay type: in vivo
Experimental: as §3, §4

P. aerugionsa ATCC 27853 [6] = assay: Broth microdilution MIC determination; assay type: cell-based, P. aeruginosa; settings: for MIC: Pseudomonas aeruginosa
Experimental: as §1, §2
For the broth microdilution test, 100 μL of each bacterial suspension in suitable growth medium was added to the wells of a sterile 96-well microtitre plate already containing 100 μL of two-fold serially diluted 2-(bromoacetamido)phenylboronic acid or vancomycin and penicillin in proper growth medium. The final volume in each well was 200 μL. Control wells were prepared with culture medium, bacterial suspension only compound only and DMSO in amounts corresponding to the highest quantity present. […] To indicate cell viability, the presence of a purple color was determined after adding 20 μL/well of 500 ug/ml MTT (3-(4,5-Dimethylthiazol-2-yl-2,5-diphenyltetrazolium bromide, Sigma) and incubated under appropriate cultivation conditions (37° C. for 3 hrs). To determine the formation of formazan by living cells, OD570 was measured by a Microplate Reader (Thermoscientific, Finland) after adding 200 μL/well of a solubilizing solution (a mixture of DMSO:ethanol (1:1)). Positive controls were wells with a bacterial suspension in an appropriate growth medium. Negative controls were wells with growth medium and antimicrobial compound. […]

E. coli ATCC 8739 [7] = assay: Disk diffusion; assay type: cell-based
Experimental: as §1, §2
(§5) For the disk diffusion assay, bacterial suspensions were prepared to the standard McFarland's (0.5) and subsequently uniformly spread on a solid growth medium in a Petri dish. Sterile paper disks (6 mm in diameter; oxoid, UK) were placed on the surface of each agar plate and were impregnated with 30 μL to a final concentration of 600 ug/ml of each agent to be tested. The plates were incubated for the recommended time periods (18-24 hrs) under appropriate cultivation conditions. Antibacterial activity was determined by measuring an inhibition zone around a disk following the incubation. Disks impregnated with sterile distilled water, DMSO served as negative controls and disks with standard antibiotics Vancomycin and penicillin (Oxoid, UK) served as positive controls. Triplicates at each concentration were performed and the average of the results was taken.

[8] = Maximum solubility in DMSO (stock solution); assay type: physicochemical; settings: 100% DMSO, organic solvent or mixture, thermodynamic from solid
Experimental: as §2

P. aerugionsa ATCC 27853 [9] = assay: Disk diffusion; assay type: cell-based; settings: P. aeruginosa ATCC 27853
Experimental: as §1, §2, §5

MRSA clinical strain [10] = assay: Disk diffusion; assay type: cell-based, methicillin resistant S. aureus

Which “Growth inhibition (statement in words)” value (MRSA clinical strain [1]; MRSA, general statement of the description, method not named) does the source give for `O=C(CBr)Nc1ccccc1B(O)O` [2-(bromoacetamido)phenylboronic acid] here?
The value was “inhibits the growth”.

What about the MIC (MRSA clinical strain [1]; MRSA clinical strain, MTT readout, read-out: MIC) of the same compound?
The MIC was 1.56 µg/mL (≈ 6.05 µM).

And the zone of inhibition at 600 µg/mL (S. aureus ATCC 2592 [2]; Staphylococcus aureus, ATCC2592, agent concentration as in row label (vancomycin 100 μg/ml, compound 600 μg/ml))?
The zone of inhibition at 600 µg/mL was 24 mm.

And the MIC (S. aureus ATCC 2592 [3])?
Its MIC is 1.56 µg/mL (≈ 6.05 µM).

And the “Growth inhibition (statement in words)” value (E. coli ATCC 8739 [4]; E. coli, general statement of the description, method not named)?
The value was “inhibits the growth”.

What about the MIC (E. coli ATCC 8739 [4]; Escherichia coli, ATCC8739, E. coli ATCC 8739, 24 h, MTT readout) of the same compound?
The MIC was 75 µg/mL (≈ 291 µM).

And the LD50 at 14 days [5]?
Its LD50 at 14 days is about 130 mg/kg.

And the “% Death/group” value (Balb/c Mice; 10 mg/kg single oral dose in DMSO)?
The value was 0%.

What about the “% Death/group” value (Balb/c Mice; 50 mg/kg single oral dose in DMSO) of the same compound?
The value was 0%.

And the “% Death/group” value (Balb/c Mice; 100 mg/kg single oral dose in DMSO)?
The value was 0%.

And the “Time of death after administration” value (Balb/c Mice; 150 mg/kg)?
The value was at most 18 h.

And the “% Death/group” value (Balb/c Mice; 150 mg/kg single oral dose in DMSO)?
Its value is 70%.

What about the “Time of death after administration” value (Balb/c Mice; 200 mg/kg) of the same compound?
Its value is at most 4 h.

And the “% Death/group” value (Balb/c Mice; 200 mg/kg single oral dose in DMSO)?
Its value is 70%.

And the “Behaviour and clinical signs post administration” value (Balb/c Mice; 10, 50 and 100 mg/kg)?
Its value is “behaved normally”.

And the “Behaviour and clinical signs post administration” value (Balb/c Mice; 150 and 200 mg/kg)?
The value was “Reduced activity”.

And the “Start of reduced activity post treatment” value (Balb/c Mice; 150 and 200 mg/kg)?
Its value is 30 min.

And the “Recovery of activity post treatment” value (Balb/c Mice; 150 and 200 mg/kg, survived animals)?
The value was 3 h.

And the “Doses showing systemic toxicity and causing death” value (Balb/c Mice; acute oral, dissolved in DMSO, BALB/c mice)?
The value was “above 100 mg/kg”.

What about the “Change in body weights” value (Balb/c Mice; all groups) of the same compound?
Its value is “No significant change”.

And the Gross autopsy (Balb/c Mice; dead mice and all survivors at day 14)?
Its Gross autopsy is “did not reveal any significant findings”.

And the “% Death/gender” value (Balb/c Mice; females, 10 mg/kg single oral dose in DMSO)?
Its value is 0%.

And the “% Death/gender” value (Balb/c Mice; females, 50 mg/kg single oral dose in DMSO)?
The value was 0%.

What about the “% Death/gender” value (Balb/c Mice; females, 100 mg/kg single oral dose in DMSO) of the same compound?
Its value is 0%.

And the “% Death/gender” value (Balb/c Mice; females, 150 mg/kg single oral dose in DMSO)?
Its value is 100%.

And the “% Death/gender” value (Balb/c Mice; males, 10 mg/kg single oral dose in DMSO)?
Its value is 0%.

And the “% Death/gender” value (Balb/c Mice; males, 50 mg/kg single oral dose in DMSO)?
Its value is 0%.

What about the “% Death/gender” value (Balb/c Mice; males, 100 mg/kg single oral dose in DMSO) of the same compound?
The value was 0%.

What about the “% Death/gender” value (Balb/c Mice; males, 150 mg/kg single oral dose in DMSO) of the same compound?
Its value is 40%.

What about the “% Death/gender” value (Balb/c Mice; males, 200 mg/kg single oral dose in DMSO) of the same compound?
The value was 80%.

And the “Growth inhibition (statement in words)” value (P. aerugionsa ATCC 27853 [6]; P. aeruginosa, general statement of the description, method not named)?
Its value is “inhibits the growth”.

What about the MIC (P. aerugionsa ATCC 27853 [6]; ATCC27853, P. aeruginosa ATCC 27853, 24 h, MTT readout, read-out: MIC) of the same compound?
The MIC was over 600 µg/mL.

What about the zone of inhibition at 600 µg/mL (E. coli ATCC 8739 [7]; Escherichia coli, ATCC8739, agent concentration as in row label (ampicillin 20 mg/ml, compound 600 μg/ml)) of the same compound?
The zone of inhibition at 600 µg/mL was 16 mm.

What about the solubility [8] of the same compound?
Its solubility is 1000 µg/mL (≈ 3880 µM).

Which MIC (P. aerugionsa ATCC 27853 [6]; ATCC27853, 24 h) does the source give for `CC1(C)S[C@@H]2[C@H](NC(=O)[C@H](N)c3ccccc3)C(=O)N2[C@H]1C(=O)O` [Ampicillin, reference compound] here?
The MIC was 150 µg/mL (≈ 429 µM).

What about the “Susceptibility category (S/R) beside zone of inhibition” value (E. coli ATCC 8739 [7]) of the same compound?
The value was “S”.

And the “Susceptibility category (S/R) beside zone of inhibition” value (P. aerugionsa ATCC 27853 [9])?
Its value is “R”.

For `CN[C@H](CC(C)C)C(=O)N[C@H]1C(=O)N[C@@H](CC(N)=O)C(=O)N[C@H]2C(=O)N[C@H]3C(=O)N[C@H](C(=O)N[C@H](C(=O)O)c4cc(O)cc(O)c4-c4cc3ccc4O)[C@H](O)c3ccc(c(Cl)c3)Oc3cc2cc(c3O[C@@H]2O[C@H](CO)[C@@H](O)[C@H](O)[C@H]2O[C@H]2C[C@](C)(N)[C@H](O)[C@H](C)O2)Oc2ccc(cc2Cl)[C@H]1O` [Vancomycin, reference compound], which MIC (MRSA clinical strain [1]; MRSA) is on record?
The MIC was 0.4 µg/mL (≈ 0.276 µM).

What about the “Susceptibility category (S/R) beside zone of inhibition” value (S. aureus ATCC 2592 [2]) of the same compound?
Its value is “S”.

What about the “Susceptibility category (S/R) beside zone of inhibition” value (MRSA clinical strain [10]) of the same compound?
The value was “S”.
